Source: EP4768499A1, “MACROCYCLIC PEPTIDE COMPOUND HAVING CELL MEMBRANE PERMEABILITY AND METABOLIC STABILITY, AND LIBRARY CONTAINING SAME” (Chugai Seiyaku Kabushiki Kaisha, priority 2023, dated 2025)
Starred links: 1 amine or outer side, 2 acyl side, 3 side chain; linkers in the order of their positions; H or OH if unused. Positions of bridges follow the written chain, without caps; N, C: chain ends. Non-standard residues stand in square brackets, D forms with d. Residues, ends and D or L forms follow the SMILES beside them. *: point of attachment. NMeF = CN[C@@H](Cc1ccccc1)C(=O)O; NMeI = CC[C@H](C)[C@H](NC)C(=O)O; NMeT = CN[C@H](C(=O)O)[C@@H](C)O; hPhe = N[C@@H](CCc1ccccc1)C(=O)O; NMeβAla = CN(CCC(=O)[*:2])[*:1]; NMeD = CN[C@@H](CC(=O)O)C(=O)O; NMeL = CN[C@@H](CC(C)C)C(=O)O; dNMeV = CN[C@@H](C(=O)O)C(C)C; NMeV = CN[C@H](C(=O)O)C(C)C; NMeA = CN[C@@H](C)C(=O)O; Piperidide = C1CCN(*)CC1; Abu = CC[C@H](N)C(=O)O; NBuGly = CCCCNCC(=O)O; βAla = NCCC(=O)O; Sar = CNCC(=O)O; tBu = CC(C)(C)*

How the values were obtained:
[1] = Metabolic stability test: liver microsomal stability assay; assay type: in vitro ADME, mouse; details: mouse liver microsomes 0.5 mg protein/mL, compound 1 µM; for microsomal CLint at 1 µM: male, pH 7.4, presence of NADPH, read-out: Mouse Hepatic Microsome CLh,int NADPH(+); for Mouse Hepatic Microsome CLh,int NADPH(-): absence of NADPH
[2] = Membrane permeability test using Caco-2 cells with preincubation; assay type: in vitro ADME; details: Caco-2; preincubation 20 to 24 hours; Apical FaSSIF/HBSS pH 6.0, Basal HBSS 4% BSA pH 7.4; 180 minutes; read-out: Caco2 Papp
Caco-2 cells = assay: as above; assay type: in vitro ADME; details: Caco-2 cells, preincubation 20 to 24 hours; apical FaSSIF/HBSS 1% DMSO pH 6.0, basal HBSS 4% BSA pH 7.4; basal sample at 180 minutes

microsomal CLint at 1 µM [1] [µL/min/mg]	Mouse Hepatic Microsome CLh,int NADPH(-) [1] [µL/min/mg Protein]	Papp A→B [2] [×10⁻⁶ cm/s]	Caco2 Papp (10^-6 cm/sec) (Caco-2 cells)	Structure (SMILES)
41.7	34.3	0.82	0.82 10^-6 cm/sec	CCCCN1CC(=O)N(C)[C@@H](Cc2ccccc2)C(=O)N[C@@H](COC(C)(C)C)C(=O)N(C)[C@@H](CC(C)C)C(=O)NCCC(=O)N(C)[C@@H](C)C(=O)N(C)[C@@H]([C@@H](C)CC)C(=O)N[C@@H](CC(C)C)C(=O)N(C)[C@H](C(=O)N2CCCCC2)CC(=O)N(C)CCC(=O)N(C)[C@@H](CC(C)C)C(=O)N[C@@H]([C@@H](C)CC)C(=O)N(C)[C@@H](Cc2ccccc2)C1=O [pd154] ([NMeβAla][NMeL]I[NMeF][NBuGly][NMeF]S(tBu)[NMeL][βAla][NMeA][NMeI]L[NMeD]-Piperidide; lactam N-13)
48.8	37.2	0.87	0.87 10^-6 cm/sec	CC[C@H](C)[C@H]1C(=O)NCC(=O)N(C)[C@@H](CC(C)C)C(=O)N(C)[C@@H](C(C)C)C(=O)N(C)[C@@H](C)C(=O)N(C)[C@H](C(=O)N2CCCCC2)CC(=O)N(C)[C@@H](C)C(=O)N[C@@H](CC(C)C)C(=O)N(C)[C@@H](CC(C)C)C(=O)N[C@@H](COC(C)(C)C)C(=O)N(C)[C@@H](Cc2ccccc2)C(=O)N[C@@H](C)C(=O)N(C)[C@@H](Cc2ccccc2)C(=O)N1C [pd155] ([NMeA]L[NMeL]S(tBu)[NMeF]A[NMeF][NMeI]G[NMeL][NMeV][NMeA][NMeD]-Piperidide; lactam N-13)
31.7	24.9	1.42	1.42 10^-6 cm/sec	CC(C)C[C@@H]1NC(=O)[C@H](Cc2ccccc2)N(C)C(=O)[C@H](C)N(C)C(=O)[C@H](CC(C)C)N(C)C(=O)CN(C)C(=O)[C@H](C(C)C)N(C)C(=O)[C@H](CC(C)C)N(C)C(=O)[C@H](C(C)C)N(C)C(=O)[C@H](C(C)C)NC(=O)[C@H](CC(C)C)N(C)C(=O)[C@@H](C(C)C)NC(=O)C[C@@H](C(=O)N2CCCCC2)N(C)C(=O)[C@H](C)N(C)C1=O [pd157] ([dV][NMeL]V[NMeV][NMeL][NMeV][Sar][NMeL][NMeA][NMeF]L[NMeA][NMeD]-Piperidide; lactam N-13)
19.3	13.7	0.44	0.44 10^-6 cm/sec	CC(C)C[C@@H]1NC(=O)[C@H](CC(C)C)N(C)C(=O)[C@H]([C@@H](C)O)NC(=O)[C@H](C(C)C)N(C)C(=O)[C@H](Cc2ccccc2)N(C)C(=O)[C@@H](C(C)C)NC(=O)C[C@@H](C(=O)N2CCCCC2)N(C)C(=O)[C@H](C)N(C)C(=O)[C@H](Cc2ccccc2)N(C)C(=O)[C@H](C)NC(=O)[C@H](COC(C)(C)C)NC(=O)[C@H](CC(C)C)N(C)C(=O)CN(C)C1=O [pd158] ([dV][NMeF][NMeV]T[NMeL]L[Sar][NMeL]S(tBu)A[NMeF][NMeA][NMeD]-Piperidide; lactam N-13)
49.5	42.0	0.64	0.64 10^-6 cm/sec	CCCCN1CC(=O)N(C)[C@@H](CC(C)C)C(=O)N[C@@H]([C@@H](C)O)C(=O)N(C)[C@@H](CC(C)C)C(=O)N2CCC[C@H]2C(=O)N[C@@H](CCc2ccccc2)C(=O)N[C@@H]([C@@H](C)CC)C(=O)N(C)[C@H](C(=O)N2CCCCC2)CC(=O)N(C)[C@@H](CC(C)C)C(=O)N[C@@H](COC(C)(C)C)C(=O)N(C)[C@@H](C(C)C)C(=O)N[C@@H]([C@@H](C)CC)C(=O)N2CCC[C@H]2C1=O [pd159] ([NMeL]S(tBu)[NMeV]IP[NBuGly][NMeL]T[NMeL]P[hPhe]I[NMeD]-Piperidide; lactam N-13)
35.3	37.0	0.09	0.09 10^-6 cm/sec	CC(C)C[C@@H]1NC(=O)[C@H](C(C)C)N(C)C(=O)[C@H](Cc2ccccc2)N(C)C(=O)[C@H](COC(C)(C)C)NC(=O)[C@H](CC(C)C)N(C)C(=O)[C@H](C)N(C)C(=O)[C@H]([C@@H](C)O)NC(=O)[C@H](CC(C)C)N(C)C(=O)[C@H](C(C)C)N(C)C(=O)[C@H](CCc2ccccc2)NC(=O)[C@H](CC(C)C)N(C)C(=O)[C@@H](C(C)C)N(C)C(=O)C[C@@H](C(=O)N2CCCCC2)N(C)C1=O [pd161] ([dNMeV][NMeL][hPhe][NMeV][NMeL]T[NMeA][NMeL]S(tBu)[NMeF][NMeV]L[NMeD]-Piperidide; lactam N-13)
12.5	16.3	0.51	0.51 10^-6 cm/sec	CC[C@@H]1NC(=O)[C@H](CC(C)C)N(C)C(=O)[C@H]([C@@H](C)O)NC(=O)[C@H](C(C)C)N(C)C(=O)[C@H](Cc2ccccc2)N(C)C(=O)[C@@H](C(C)C)NC(=O)C[C@@H](C(=O)N2CCCCC2)N(C)C(=O)CN(C)C(=O)[C@H](Cc2ccccc2)N(C)C(=O)[C@H](C)N(C)C(=O)[C@H](COC(C)(C)C)NC(=O)[C@H](CC(C)C)N(C)C(=O)CN(C)C1=O [pd162] ([dV][NMeF][NMeV]T[NMeL][Abu][Sar][NMeL]S(tBu)[NMeA][NMeF][Sar][NMeD]-Piperidide; lactam N-13)
28.2	36.5	0.04	0.04 10^-6 cm/sec	CC[C@@H]1NC(=O)[C@H](Cc2ccccc2)N(C)C(=O)[C@H](CC(C)C)N(C)C(=O)[C@H](CC(C)C)NC(=O)[C@H](C)N(C)C(=O)C[C@@H](C(=O)N2CCCCC2)N(C)C(=O)[C@H](CC(C)C)N(C)C(=O)[C@H]([C@@H](C)CC)NC(=O)[C@H](Cc2ccccc2)N(C)C(=O)[C@H]([C@@H](C)O)N(C)C(=O)[C@H]([C@@H](C)CC)N(C)C(=O)[C@H](CC(C)C)NC(=O)CN(C)C1=O [pd163] ([NMeA]L[NMeL][NMeF][Abu][Sar]L[NMeI][NMeT][NMeF]I[NMeL][NMeD]-Piperidide; lactam N-13)
14.6	10.0	0.06	0.06 10^-6 cm/sec	CC[C@H](C)[C@@H]1NC(=O)[C@@H]2CCCN2C(=O)[C@H](C(C)C)N(C)C(=O)[C@H](CC(C)C)N(C)C(=O)C[C@@H](C(=O)N2CCCCC2)N(C)C(=O)[C@H](CC(C)C)NC(=O)[C@H](CC(C)C)N(C)C(=O)[C@H](C)NC(=O)[C@@H]2CCCN2C(=O)[C@H]([C@@H](C)O)NC(=O)[C@H](CC(C)C)N(C)C(=O)CN(C)C(=O)[C@H](Cc2ccccc2)N(C)C1=O [pd164] ([NMeL][NMeV]PI[NMeF][Sar][NMeL]TPA[NMeL]L[NMeD]-Piperidide; lactam N-13)

Structure (SMILES)	microsomal CLint at 1 µM [1] [µL/min/mg]	Mouse Hepatic Microsome CLh,int NADPH(-) [1] [µL/min/mg Protein]	Papp A→B [2] [×10⁻⁶ cm/s]	Caco2 Papp (10^-6 cm/sec) (Caco-2 cells)
CC[C@H](C)[C@@H]1NC(=O)[C@H](Cc2ccccc2)N(C)C(=O)[C@H](CC(C)C)N(C)C(=O)[C@H](CC(C)C)NC(=O)[C@H](C)N(C)C(=O)C[C@@H](C(=O)N2CCCCC2)N(C)C(=O)[C@H](C)N(C)C(=O)[C@H](CC(C)C)NC(=O)[C@H](CC(C)C)N(C)C(=O)CNC(=O)[C@H]([C@@H](C)CC)N(C)C(=O)[C@H](Cc2ccccc2)N(C)C(=O)[C@H](C)NC1=O [pd152] ([NMeA]L[NMeL][NMeF]IA[NMeF][NMeI]G[NMeL]L[NMeA][NMeD]-Piperidide; lactam N-13)	40.2	32.5	1.02	1.02 10^-6 cm/sec
CC[C@H](C)[C@@H]1NC(=O)[C@H]([C@@H](C)CC)N(C)C(=O)[C@@H](C)NC(=O)C[C@@H](C(=O)N2CCCCC2)N(C)C(=O)[C@H](Cc2ccccc2)N(C)C(=O)[C@H](C(C)C)NC(=O)[C@H](C)N(C)C(=O)[C@H](CC(C)C)N(C)C(=O)[C@H](C)NC(=O)CN(C)C(=O)[C@H](CC(C)C)N(C)C(=O)[C@H](C)N(C)C(=O)[C@H](Cc2ccccc2)N(C)C1=O [pd153] ([dA][NMeI]I[NMeF][NMeA][NMeL][Sar]A[NMeL][NMeA]V[NMeF][NMeD]-Piperidide; lactam N-13)	15.1	26.0	0.2	0.20 10^-6 cm/sec
CC[C@H](C)[C@@H]1NC(=O)[C@H](CC(C)C)N(C)C(=O)CN(C)C(=O)C[C@@H](C(=O)N2CCCCC2)N(C)C(=O)CNC(=O)[C@H](C)N(C)C(=O)[C@H](C(C)C)N(C)C(=O)[C@H](C)N(C)C(=O)[C@H](Cc2ccccc2)N(C)C(=O)[C@H](CC(C)C)NC(=O)[C@H](Cc2ccccc2)N(C)C(=O)[C@H](C(C)C)NC(=O)[C@H](CC(C)C)N(C)C1=O [pd156] ([Sar][NMeL]I[NMeL]V[NMeF]L[NMeF][NMeA][NMeV][NMeA]G[NMeD]-Piperidide; lactam N-13)	34.1	23.7	0.39	0.39 10^-6 cm/sec
CC[C@H](C)[C@@H]1NC(=O)CN(C)C(=O)C[C@@H](C(=O)N2CCCCC2)N(C)C(=O)[C@H](CC(C)C)NC(=O)[C@H](CC(C)C)N(C)C(=O)[C@H]([C@@H](C)O)NC(=O)[C@H](Cc2ccccc2)N(C)C(=O)[C@H](CC(C)C)NC(=O)[C@H](C(C)C)N(C)C(=O)[C@H](C)N(C)C(=O)[C@H](CC(C)C)N(C)C(=O)[C@H](CCc2ccccc2)NC(=O)[C@H](CC(C)C)N(C)C1=O [pd160] ([Sar]I[NMeL][hPhe][NMeL][NMeA][NMeV]L[NMeF]T[NMeL]L[NMeD]-Piperidide; lactam N-13)	21.5	22.3	0.06	0.06 10^-6 cm/sec
